In patent US7625878B2, “Sulfoalkyl ether-alkyl ether cyclodextrin derivatives” (The University of Kansas, priority 2003, dated 2009):

Columns and labels:
Type in all cases: physicochemical
[1] = binding constant K1:1 of inclusion complex with Nifedipine; conditions: substrate Nifedipine, value (spread)
Method: (§1) The following tables detail some of the SAE-AE-CD's according to the invention. These products were made according to the examples below. The table indicates the inclusion complexes formed with the indicated drugs and cyclodextrins as well as their corresponding linear binding constants (K1:1) determined at 25° C.
(§2) Excess amount of drug was added to a CD-containing aqueous solution (concentration ranging from 0 to 0.10M). […] The suspension was centrifuged for 5 min. at 3000 rpm (Dynac™ centrifuge, Clay Adams, Parsippany, N.J.). A 20 μL sample was obtained from the supernatant and diluted to 1-5-ml with glass double distilled water.
(§3) The mobile phase(s) was chosen in accordance with the properties of the analyzed drug and its behavior in interacting with the chromatographic support. Suitable exemplary conditions for specific drugs are detailed in the table below.
(§4) The following general procedure was used to determine the extent of inclusion complex formation for an active agent/cyclodextrin derivative combination. The change in absorbance due to inclusion complex formation for a drug was monitored. The change in absorbance value as a function of total ligand concentration at a fixed concentration of substrate was measured. The wavelength for analysis was chosen appropriately depending on the analyzed drug. […]

[2] = binding constant K1:1 of inclusion complex with Triamcinolone; conditions: substrate Triamcinolone, value (spread)
Method: as §1
(§5) The following general procedure was used to determine the extent of inclusion complex formation for an active agent/cyclodextrin derivative combination. The change in absorbance due to inclusion complex formation for a drug was monitored. The change in absorbance value as a function of total ligand concentration at a fixed concentration of substrate was measured. The wavelength for analysis was chosen appropriately depending on the analyzed drug. The analysis was performed using a Perkin Elmer double beam UV/Vis Lamda 6 instrument equipped with a data manager software and water jacketed multicell attachment. A circulating water bath was used to provide constant temperature during experiments. The data were linearized using the method described by Foster et al.: R. Foster, D. L. Hammich, A. A Wardley (Interaction of Polynitro compounds with Aromatic Hydroquinones and Bases. Part III. A New Method for Determining the Association Constants for Certain Interactions between Nitro Compounds and Bases in Solution. J. Chem. Soc. (1953) 3817-20). […]

[3] = binding constant K1:1 of inclusion complex with Camptothecin; conditions: substrate Camptothecin, value (spread)
Method: as §1, §2, §3

[4] = binding constant K1:1 of inclusion complex with Clotrimazole; conditions: substrate Clotrimazole, value (spread)
Method: as §1, §5

[5] = binding constant K1:1 of inclusion complex with Nitrendipine; conditions: substrate Nitrendipine, value (spread)
Method: as §1, §5

[6] = binding constant K1:1 of inclusion complex with Prednisolone; conditions: substrate Prednisolone, value (spread)
Method: as §1, §5

[7] = binding constant K1:1 of inclusion complex with α-Me-Prednisolone; conditions: substrate α-Me-Prednisolone, value (spread)
Method: as §1, §2, §3, §4

[8] = binding constant K1:1 of inclusion complex with Nimodipine; conditions: substrate Nimodipine, value (spread)
Method: as §1, §5

K1:1 25° C. [1] | K1:1 25° C. [2] | K1:1 25° C. [3] | K1:1 25° C. [4] | K1:1 25° C. [5] | K1:1 25° C. [6] | K1:1 25° C. [7] | K1:1 25° C. [8] | Compound
121.9(35) | – | – | – | – | – | – | – | OC[C@H]1O[C@@H]2O[C@H]3[C@H](O)[C@@H](O)[C@@H](O[C@H]4[C@H](O)[C@@H](O)[C@@H](O[C@H]5[C@H](O)[C@@H](O)[C@@H](O[C@H]6[C@H](O)[C@@H](O)[C@@H](O[C@H]7[C@H](O)[C@@H](O)[C@@H](O[C@H]8[C@H](O)[C@@H](O)[C@@H](O[C@H]1[C@H](O)[C@H]2O)O[C@@H]8CO)O[C@@H]7CO)O[C@@H]6CO)O[C@@H]5CO)O[C@@H]4CO)O[C@@H]3CO [β-CD, β-cyclodextrin]
1416.1(162) | 9769 (560) | 73 M⁻¹ | 1015(30) | 2508(59) | 3300.42(21) | 3038(269) | 1780(190) | OC[C@H]1O[C@@H]2O[C@H]3[C@H](O)[C@@H](O)[C@@H](O[C@H]4[C@H](O)[C@@H](O)[C@@H](O[C@H]5[C@H](O)[C@@H](O)[C@@H](O[C@H]6[C@H](O)[C@@H](O)[C@@H](O[C@H]7[C@H](O)[C@@H](O)[C@@H](O[C@H]8[C@H](O)[C@@H](O)[C@@H](O[C@H]9[C@H](O)[C@@H](O)[C@@H](O[C@H]1[C@H](O)[C@H]2O)O[C@@H]9CO)O[C@@H]8CO)O[C@@H]7CO)O[C@@H]6CO)O[C@@H]5CO)O[C@@H]4CO)O[C@@H]3CO [γ-CD, γ-cyclodextrin]
